Laboratory results reported in ChEMBL document CHEMBL1201862, “PubChem BioAssay data set” (2004).
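Briefly, cells in 96-well plates were exposed to five compound concentrations for 48 h, and endpoints were estimated by linear interpolation. GI50 = concentration required for 50% inhibition of growth.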 The source made the active and inactive calls. Rule as the data show it: active = GI50 up to about 1.1 µM and inactive = higher.

Assays:
Test in all cases: NCI tumour cell line growth inhibition, 48 h
DU-145 = test system: DU-145
786-0 = test system: 786-0
COLO 205 = test system: COLO 205
MDA-MB-435 = test system: MDA-MB-435
SK-MEL-2 = test system: SK-MEL-2
SK-OV-3 = test system: SK-OV-3
SNB-19 = test system: SNB-19
IGROV-1 = test system: IGROV-1
A498 = test system: A498
Malme-3M = test system: Malme-3M
M14 = test system: M14
MDA-MB-231 = test system: MDA-MB-231
CAKI-1 = test system: CAKI-1
BT-549 = test system: BT-549
OVCAR-5 = test system: OVCAR-5
NCI-H226 = test system: NCI-H226
NCI/ADR-RES = test system: NCI/ADR-RES
OVCAR-3 = test system: OVCAR-3
SF-539 = test system: SF-539
EKVX = test system: EKVX
U-251 = test system: U-251
LOX IMVI = test system: LOX IMVI
UACC-62 = test system: UACC-62
HCT-116 = test system: HCT-116
HOP-92 = test system: HOP-92
SK-MEL-28 = test system: SK-MEL-28
T47D = test system: T47D
SN12C = test system: SN12C
UACC-257 = test system: UACC-257
Hs-578T = test system: Hs-578T
SR = test system: SR
SW-620 = test system: SW-620
HCT-15 = test system: HCT-15
MDA-N = test system: MDA-N
NCI-H522 = test system: NCI-H522
MOLT-4 = test system: MOLT-4
HCC 2998 = test system: HCC 2998
TK-10 = test system: TK-10
K562 = test system: K562
HL-60 = test system: HL-60
SF-295 = test system: SF-295
PC-3 = test system: PC-3
RPMI-8226 = test system: RPMI-8226
OVCAR-8 = test system: OVCAR-8
MCF7 = test system: MCF7
KM12 = test system: KM12
HT-29 = test system: HT-29
NCI-H23 = test system: NCI-H23
CCRF-CEM = test system: CCRF-CEM
SK-MEL-5 = test system: SK-MEL-5
A549 = test system: A549
HOP-62 = test system: HOP-62
ACHN = test system: ACHN
SF-268 = test system: SF-268
SNB-75 = test system: SNB-75
OVCAR-4 = test system: OVCAR-4
NCI-H460 = test system: NCI-H460
RXF 393 = test system: RXF 393

For `COC1CCC(OS(C)(=O)=O)C(C)O1` (stereo not drawn), the GI50 (DU-145) was > 10 µM (inactive), the GI50 (786-0) was > 10 µM (inactive) and the GI50 (COLO 205) was > 10 µM (inactive). The GI50 (MDA-MB-435) was > 10 µM (inactive), the GI50 (SK-MEL-2) was > 10 µM (inactive) and the GI50 (SK-OV-3) was > 10 µM (inactive). The GI50 (SNB-19) was > 10 µM (inactive), the GI50 (IGROV-1) was > 10 µM (inactive) and the GI50 (A498) was > 10 µM (inactive). For the same compound, the GI50 (Malme-3M) was > 10 µM (inactive), the GI50 (M14) was > 10 µM (inactive) and the GI50 (MDA-MB-231) was > 10 µM (inactive). The GI50 (CAKI-1) was > 10 µM (inactive), the GI50 (BT-549) was > 10 µM (inactive) and the GI50 (OVCAR-5) was > 10 µM (inactive). For the same compound, the GI50 (NCI-H226) was > 10 µM (inactive), the GI50 (NCI/ADR-RES) was > 10 µM (inactive) and the GI50 (OVCAR-3) was > 10 µM (inactive). The GI50 (SF-539) was > 10 µM (inactive), the GI50 (EKVX) was > 10 µM (inactive) and the GI50 (U-251) was > 10 µM (inactive). The GI50 (LOX IMVI) was > 10 µM (inactive), the GI50 (UACC-62) was > 10 µM (inactive) and the GI50 (HCT-116) was > 10 µM (inactive). The GI50 (HOP-92) was 5.89 µM (inactive), the GI50 (SK-MEL-28) was > 10 µM (inactive) and the GI50 (T47D) was > 10 µM (inactive). The GI50 (SN12C) was > 10 µM (inactive), the GI50 (UACC-257) was > 10 µM (inactive) and the GI50 (Hs-578T) was > 10 µM (inactive). For the same compound, the GI50 (SR) was > 10 µM (inactive), the GI50 (SW-620) was > 10 µM (inactive) and the GI50 (HCT-15) was over 10 µM. For the same compound, the GI50 (MDA-N) was > 10 µM (inactive), the GI50 (NCI-H522) was > 10 µM (inactive) and the GI50 (MOLT-4) was > 10 µM (inactive). The GI50 (HCC 2998) was > 10 µM (inactive), the GI50 (TK-10) was > 10 µM (inactive) and the GI50 (K562) was > 10 µM (inactive). The GI50 (HL-60) was > 10 µM (inactive), the GI50 (SF-295) was > 10 µM (inactive) and the GI50 (PC-3) was > 10 µM (inactive). For the same compound, the GI50 (RPMI-8226) was > 10 µM (inactive), the GI50 (OVCAR-8) was > 10 µM (inactive) and the GI50 (MCF7) was > 10 µM (inactive). The GI50 (KM12) was > 10 µM (inactive), the GI50 (HT-29) was > 10 µM (inactive) and the GI50 (NCI-H23) was > 10 µM (inactive). For the same compound, the GI50 (CCRF-CEM) was > 10 µM (inactive), the GI50 (SK-MEL-5) was > 10 µM (inactive) and the GI50 (A549) was > 10 µM (inactive). The GI50 (HOP-62) was > 10 µM (inactive), the GI50 (ACHN) was > 10 µM (inactive) and the GI50 (SF-268) was > 10 µM (inactive). The GI50 (SNB-75) was > 10 µM (inactive), the GI50 (OVCAR-4) was > 10 µM (inactive) and the GI50 (NCI-H460) was > 10 µM (inactive). For the same compound, the GI50 (RXF 393) was > 10 µM (inactive).
